In US4649203A, “Ketoalkylphospholipids” (Takeda Chemical Industries, Ltd., priority 1983, dated 1987):
≈ marks a conversion by molar mass, not a printed value. Like-named read-outs stand apart in the source and are kept apart here.

Tests used:
Tetrahymena pyriformis W = test: Microprotozoal growth inhibiting activity, liquid dilution method (Test Example 13); type: cell-based; conditions: 28° C., 44-48 hours, pH 7.0
Description: The compounds given in Table 4 were tested for microprotozoal growth inhibiting activity (expressed in terms of MIC) in Tetrahymena pyriformis W by the liquid dilution method by cultivating said test microorganism in a test medium [20 g of Tryptose peptone (Difco), 1 g of yeast extract, 2 g of glucose, 1000 ml of distilled water, 10 ml of 1M phosphate buffer, pH 7.0] at 28° C. for 44-48 hours.

sarcoma 180 cells [1] = test: Antitumor activity, sarcoma 180, drug given 4 days before inoculation (Test Examples 1 and 7); type: in vivo, ICR mice; conditions: for Number of surviving animals/Number of animals tested: 47th day, conditions of Test Example 1; for life span prolonging ratio (T/C): ICR mice, 1 mg/mouse, 4 days before i.p. inoculation of 1×10^5 sarcoma 180 cells
Description: Four days later, 1×10^5 sarcoma 180 cells were inoculated intraperitoneally into each mouse. […] The compounds of Examples 1, 4 and 6 were tested under the same conditions as Test Example 1. The value of the number of surviving animals represents the number of animals which survived on the 47th day.

sarcoma 180 cells [2] = test: Antitumor activity, sarcoma 180, drug given after inoculation (Test Examples 2, 3 and 8); type: in vivo, ICR mice; conditions: for Number of surviving animals/Number of animals tested: 47th day, conditions of Test Example 2; for life span prolonging ratio (T/C): ICR mice, 0.33 mg/mouse at hour 1, day 1 and day 2 after i.p. sarcoma 180 inoculation
Excerpt: ICR mice (5 animals per group) were intraperitoneally inoculated with 1×10^5 sarcoma 180 cells per mouse. […] The life span prolonging ratio as compared with the control (no drug treatment) group was 206. […] The life span prolonging ratio was 257. […] The value of the number of surviving animals represents the number of animals which survived on the 47th day.

Pyricularia oryzae = test: microbe, parasite or virus in culture; type: cell-based; conditions: read-out: MIC, Pyricularia oryzae (rice blast)
Botrytis cinerea = test: Antifungal activity, serial dilution method; type: cell-based; conditions: 1% glucose bouillon agar, read-out: MIC, Botrytis cinerea (gray mold)
Diaporthe citri = test: Antifungal activity, serial dilution method; type: cell-based; conditions: 1% glucose bouillon agar, read-out: MIC, Diaporthe citri (citrus melanose)
Elsinoe fawcetti = test: Antifungal activity, serial dilution method; type: cell-based; conditions: 1% glucose bouillon agar; read-out: MIC, Elsinoe fawcetti (citrus scab)
Cercospora beticola = test: Antifungal activity, serial dilution method; type: cell-based; conditions: read-out: MIC, Cercospora beticola (sugar beat leaf spot)
Sclerotinia sclerotiorum = test: Antifungal activity, serial dilution method; type: cell-based; conditions: 1% glucose bouillon agar, read-out: MIC, Sclerotinia sclerotiorum (kidney bean stem rot)
[3] = Toxicity testing, LD50 (Test Example 11); conditions: mouse, in vivo, ip; ICR mice, intraperitoneal, in physiological saline
Description: LD50 values were determined in ICR mice by intraperitoneally administering each test compound in the form of a solution in physiological saline.

[4] = Adverse effects (general statement)
blood pressure = conditions: rat, in vivo, iv
Description: Seven-week-old male Spraugue-Dawley rats (200-290 g) were anesthesized by intraperitoneal administration of 60 mg/kg of pentobarbital sodium and the left carotid artery (for blood pressure measurement) and left femoral vein (for intravenous drug administration) were cannulated.

platelets = conditions: Hanahan et al., Biochem. Biophys. Res. Commun., 99, 183 (1981); cited from earlier work
PAF = test: Anti-PAF activity, inhibition of PAF-induced platelet aggregation (Test Example 14); type: cell-based; conditions: Oryctolagus cuniculus, 3×10^-5 M, rabbit washed PRP, read-out: percentage inhibition of maximum aggregation due to PAF
Description: A blood sample was taken directly from a male rabbit using a syringe containing 3.15% citric acid (1 to 9 volumes of blood) as anticoagulant, and centrifuged at 1000 rpm and room temperature for 10 minutes to give platelet rich plasma (PRP). The PRP was further centrifuged at 1400 rpm for 15 minutes. The platelet pellet thus obtained was suspended in Ca^++ -free Tyrode (containing 0.25% of gelatin). A 250-μl portion of the thus-prepared washed PRP was stirred at 37° C. for 2 minutes, then 25 μl of 0.2-0.5 mM Ca^++ solution was added and the mixture was further stirred for 30 seconds. Thereafter, the compound of Example 8 was added to a concentration of 3×10^-5 M. Platelet aggregation was measured with an aggregation meter (Rigaku Denki). The activity of the compound of Example 8 as determined in terms of percentage inhibition based on the maximum light transmittance (maximum aggregation) due to PAF in the control PRP was 94%.

Meth A sacoma cells = test: Antitumor activity, Meth A sarcoma (Test Example 4); type: in vivo, Balb/C mice; conditions: 0.5 mg/mouse once daily for 5 days at site of inoculation; tumors weighed day 15
Description: Balb/C mice (5 animals per group) were each subcutaneously inoculated with 1×10^5 Meth A sacoma cells. Separately, a solution of the compound of Example 7 in physiological saline was administered to the mice at the site of inoculation in a dose of 0.5 mg/mouse once daily for 5 consecutive days starting from day 1 after tumor cell inoculation. On day 15, the tumor tissues were excised and weighed. The inhibition ratio as compared with the control group was 83%.

P388 leukemia cells = test: Antitumor activity, P388 leukemia (Test Example 5); type: in vivo; conditions: CDF1 mice, 1 mg/mouse i.p. once per day for 14 days
Description: CDF1 mice (5 animals per group) were each intraperitoneally inoculated with 1×10^5 P388 leukemia cells. Separately, a solution of the compound of Example 7 in physiological saline was intraperitoneally administered to the mice in a dose of 1 mg/mouse once per day for 14 consecutive days starting from day 1 after tumor implantation. The life span prolonging ratio as compared with the control group was 140.

MM46 cells = test: Antitumor activity, MM46 (Test Example 6); type: in vivo, C3H/He mice; conditions: 5 animals per group; 0.25 mg/mouse i.p. 4 days before and 4 days after inoculation; controls all died within 21 days
Description: The compound of Example 7 was intraperitoneally administered to C3H/He mice (5 animals per group) in a dose of 0.25 mg/mouse for 4 consecutive days.
On the 5th day, 1×10^4 MM46 cells were intraperitoneally inoculated into each mouse, and the compound of Example 7 was again administered intraperitoneally to the mice in a dose of 0.25 mg/mouse for 4 days starting from day 1 after inoculation.

washed PRP (platelets) = test: Action on platelets: platelet aggregation caused by test drug (Test Example 9); type: cell-based; conditions: 3×10^-5 M, rabbit washed PRP, 37° C.
Description: A blood sample was taken from a male rabbit using a syringe containing 3.15% citric acid (1 to 9 volumes of blood) as anticoagulant, and centrifuged at 1000 rpm and room temperature for 10 minutes to give platelet rich plasma (PRP). The PRP was further centrifuged at 1400 rpm for 15 minutes. The platelet pellet thus obtained was suspended in Ca^++ -free Tyrode (containing 0.25% of gelatin). A 250 μl portion of the thus-prepared washed PRP was stirred at 37° C. for 2 minutes, then 25 μl of 0.2-0.5 mM Ca^++ solution was added and the mixture was further stirred for 30 seconds. Thereafter, the test drug was added in an amount sufficient to make a concentration of 3×10^-5M. Platelet aggregation was measured using an aggregation meter (Rigaku Denki).

Row | SMILES | MIC (Tetrahymena pyriformis W) [µg/mL] | Number of surviving animals/Number of animals tested (sarcoma 180 cells [1]) | life span prolonging ratio (T/C) (sarcoma 180 cells [1]) | Number of surviving animals/Number of animals tested (sarcoma 180 cells [2]) | life span prolonging ratio (T/C) (sarcoma 180 cells [2]) | MIC (Pyricularia oryzae) [µg/mL] | MIC (Botrytis cinerea) [µg/mL] | MIC (Sclerotinia sclerotiorum) [µg/mL] | LD50 [3] [mg/kg] | Hypotensive action [duration] (blood pressure) [s] | Hypotensive action ΔP (blood pressure) [mmHg] | other results
1 | CCCCCCCCCCCCCCCCC(=O)COCC(COP(=O)([O-])OCC[N+](C)(C)C)OC (centres unmarked) [drawing 44] | 0.4 (≈ 0.744 µM) |  |  |  |  |  |  |  |  |  |  | 
2 | CCCCCCCCCCCCCCCCC(=O)COCC(COP(=O)([O-])OCC[n+]1ccsc1)OC (centres unmarked) [drawing 45] | 1 to 2 (≈ 1.77 to 3.55 µM) |  |  |  |  |  |  |  |  |  |  | 
3 | CCCCCCCCCCCCCCCC(=O)COCC(COP(=O)([O-])OCC[N+](C)(C)C)OC (centres unmarked) [Example 1, 3-(2-Oxoheptadecyloxy)-2-methoxypropyl 2-trimethylammonioethyl phosphate] |  | 0/5 | 290 | 0/5 | 340 |  |  |  |  |  |  | 
4 | CCCCCCCCCCCCCCCCC(=O)COCC(COP(=O)([O-])OCC[n+]1ccsc1)OC (centres unmarked) [drawing 51] |  |  |  |  |  | 3.12 (≈ 5.53 µM) | 100 (≈ 177 µM) | 25 (≈ 44.3 µM) |  |  |  | MIC (Diaporthe citri): 12.5 µg/mL (≈ 22.2 µM); MIC (Elsinoe fawcetti): 12.5 µg/mL (≈ 22.2 µM); MIC (Cercospora beticola; 1% glucose bouillon agar): 12.5 µg/mL (≈ 22.2 µM)
5 | CCCCCCCCCCCCCCC(=O)COCC(COP(=O)([O-])OCC[N+](C)(C)C)OC (centres unmarked) [Example 4, 3-(2-Oxohexadecyloxy)-2-methoxypropyl 2-trimethylammonioethyl phosphate] |  | 0/5 | 224 | 0/5 | 230 |  |  |  |  |  |  | 
6 | CCCCCCCCCCCCCCCCCCC(=O)COCC(COP(=O)([O-])OCC[N+](C)(C)C)OC (centres unmarked) [Example 6, 3-(2-Oxoeicosyloxy)-2-methoxypropyl 2-trimethylammonioethyl phosphate] |  | 1/5 | 236 | 0/5 | 338 |  |  |  |  |  |  | 
7 | CCCCCCCCCCCCCCCCCCOCC(COP(=O)([O-])OCC[N+](C)(C)C)OC (centres unmarked) [compound (XIII), reference compound] | 1 (≈ 1.91 µM) |  | 170 |  |  | 6.25 (≈ 11.9 µM) | 25 (≈ 47.7 µM) | > 100 | 25 to 50 | 270 | -43 to -75 | adverse effects (in words) [4]: hypotensive activity and local irritation (necrosis) is also noted; platelet aggregating activity (in words) (platelets): platelet aggregating activity
8 | CCCCCCCCCCCCCCCCC(=O)COCC(COP(=O)([O-])OCC[n+]1ccsc1)OC (centres unmarked) [Example 8, 3-(2-Oxooctadecyloxy)-2-methoxypropyl 2-thiazolioethyl phosphate] |  |  |  |  | 257 |  |  |  | > 150 | < 30 | -3 | inhibition at 30 µM (PAF): 94%; blood pressure decrease (in words) (blood pressure): no observable blood pressure decrease
9 | CCCCCCCCCCCCCCCCC(=O)COCC(COP(=O)([O-])OCC[N+](C)(C)C)OC (centres unmarked) [drawing 49] |  |  |  |  |  | 3.12 (≈ 5.8 µM) | 6.25 (≈ 11.6 µM) | 25 (≈ 46.5 µM) |  |  |  | MIC (Diaporthe citri): 6.25 µg/mL (≈ 11.6 µM); MIC (Elsinoe fawcetti): 6.25 µg/mL (≈ 11.6 µM); MIC (Cercospora beticola): 3.12 µg/mL (≈ 5.8 µM)
10 | CCCCCCCCCCCCCCCCC(=O)COCC(COP(=O)([O-])OCC[N+](C)(C)C)OC (centres unmarked) [Example 7, 3-(2-Oxooctadecyloxy)-2-methoxypropyl 2-trimethylammonioethyl phosphate] |  |  | 180 |  | 206 |  |  |  | > 150 | < 30 | -5 | inhibition ratio (tumor weight) as compared with control group (Meth A sacoma cells): 83%; life span prolonging ratio as compared with the control group (P388 leukemia cells): 140; animals survived on day 46 (MM46 cells): 4 animals; platelet aggregation (in words) (washed PRP (platelets)): did not cause aggregation at all; platelet aggregation (in words) (washed PRP (platelets); listed as drawing 39): No aggregation; blood pressure decrease (in words) (blood pressure): no observable blood pressure decrease
